Here are results for 57 compounds from article PMC9995496, “A screen for MeCP2-TBL1 interaction inhibitors using a luminescence-based assay” (Scientific Reports, 2023).

Counter-ions that a name gives are not always drawn.

The first assay concerns PRKACA-PRKAR2A interaction (SmBiT-PRKACA / LgBiT-PRKAR2A), protein kinase A. Further details: NanoLuc complementation counter-screen in cell extract, PRKACA with PRKAR2A, loss of luminescence, detects NanoLuc interference. Conditions: 0.5 h, 20 µM; inhibitor.
On to `Cc1ccccc1CN1C(=O)C2=C(CCN(Cc3ccccc3)C2)N2CCN=C12` [UM0142096:01, TIC10], for which the “Inh (PKA)” value stood at 4.346.

Still in this assay, the particulars now being: counter-screen for NanoLuc interference, 0.5 h, 20 µM, inhibitor, Inh (PKA).
`CN1CCN(c2ccc3nc(-c4c(N)c5c(F)cccc5[nH]c4=O)[nH]c3c2)CC1` [UM0142034:01, Dovitinib Dilactic acid]: the “Inh (PKA)” value is recorded as 16.9%.
Take `C[C@H]1c2cccc(O)c2C(=O)C2=C(O)[C@]3(O)C(=O)C(C(N)=O)=C(O)[C@@H](N(C)C)[C@@H]3[C@@H](O)[C@@H]21` [UM0142036:01, Doxycycline HCl]: the “Inh (PKA)” value came to 1.035%.
Regarding `Nc1ccn([C@@H]2O[C@H](CO)[C@@H](O)C2(F)F)c(=O)n1` [UM0142041:01, Gemcitabine], the “Inh (PKA)” value is given as -0.03613%.
On to `CCN(C)C(=O)Oc1cccc([C@H](C)N(C)C)c1` [UM0142069:01, Rivastigmine Tartrate], for which the “Inh (PKA)” value was 1.4%.
The same measure, in the same setting: the result for `COc1cc(Nc2ncc(F)c(Nc3ccc4c(n3)NC(=O)C(C)(C)O4)n2)cc(OC)c1OC` [UM0142079:01, R406] reads 54.73%.

Still in this assay, the particulars now being: counter-screen for NanoLuc interference; 0.5 h, 20 µM; inhibitor.
For `CN(CCOc1ccc(NS(C)(=O)=O)cc1)CCc1ccc(NS(C)(=O)=O)cc1` [UM0142033:01, Dofetilide], the “Inh (PKA)” value is -0.1542%.
For `CCN1CC(CCN2CCOCC2)C(c2ccccc2)(c2ccccc2)C1=O` (stereo not drawn) [UM0142035:01, Doxapram HCl], the “Inh (PKA)” value came to 1.453%.
In the case of `Nc1nc(=O)n([C@@H]2CS[C@H](CO)O2)cc1F` [UM0142037:01, Emtricitabine], the “Inh (PKA)” value is -0.284%.
Same read-out and setting: the result for `C[C@]12CC[C@@H]3c4ccc(O)cc4CC[C@H]3[C@@H]1CCC2=O` [UM0142038:01, Estrone] reads 7.468%; that for `O=C1[C@H](CC[C@H](O)c2ccc(F)cc2)[C@@H](c2ccc(O)cc2)N1c1ccc(F)cc1` [UM0142039:01, Ezetimibe], 29.66%.
Still for that read-out and setting: next, `CC(C(=O)O)c1ccc(-c2ccccc2)c(F)c1` (stereo not drawn) [UM0142040:01, Flurbiprofen]: 28.61%.
On the same count and under the same terms, next, `CC(C)c1noc(N2CCC(COc3ccc(-c4ccc(S(C)(=O)=O)cc4)nc3)CC2)n1` [UM0142042:01, GSK1292263]: 2.417%; `CNC(=O)c1c(F)cccc1Nc1nc(Nc2cc3c(ccn3C(=O)CN(C)C)cc2OC)nc2[nH]ccc12` [UM0142043:01, GSK1838705A]: 3.955%; `O=C(O)Cc1cccc(OCCCN(Cc2cccc(C(F)(F)F)c2Cl)CC(c2ccccc2)c2ccccc2)c1` [UM0142045:01, GW3965 HCl]: 20.75%.
Consider `CC(C)Cc1ccc(C(C)C(=O)O)cc1` (stereo not drawn) [UM0142046:01, Ibuprofen], for which the “Inh (PKA)” value is 3.005%.
With `CCOC(=O)[C@H](CCc1ccccc1)N[C@@H](C)C(=O)N1C(=O)N(C)C[C@H]1C(=O)O` [UM0142047:01, Imidapril HCl], the “Inh (PKA)” value is given as 2.302%.
Same read-out and setting: next, `CNC(=O)c1ccc(-c2cnc3ncc(Cc4ccc5ncccc5c4)n3n2)cc1F` [UM0142048:01, INCB28060]: 6.016%; `CC(O)c1cc(C(=O)N[C@@H](C)Cn2ccc(-c3ccc(C#N)c(Cl)c3)n2)n[nH]1` (stereo partly drawn) [UM0142049:01, ODM-201]: 2.703%.
The same measure, in the same setting: the result for `COC(=O)C1=C(C)NC(C)=C(C(=O)OC(C)C)C1c1cccc2nonc12` (stereo not drawn) [UM0142050:01, Isradipine (Dynacirc)] reads 94.06%.
Still for that read-out and setting: next, `COC(=O)C1=C(C#N)NC(C)=C(C(=O)OC(C)C)C1c1cccc([N+](=O)[O-])c1` (stereo not drawn) [UM0142051:01, Nilvadipine]: 88.81%; `Nc1ccn([C@@H]2CS[C@H](CO)O2)c(=O)n1` [UM0142052:01, Lamivudine]: -0.4847%.
Regarding `CCN(C(=O)c1c(O)c2c(Cl)cccc2n(C)c1=O)c1ccccc1` [UM0142053:01, Laquinimod (ABR-215062)], the “Inh (PKA)” value was 1.122%.
Consider `c1ccc(-c2nn3c(c2-c2ccnc4cc(OCCN5CCOCC5)ccc24)CCC3)nc1` [UM0142054:01, LY2109761], for which the “Inh (PKA)” value is reported as -0.08675%.
In the case of `NC1=N[C@@]2(c3cc(NC(=O)c4ccc(F)cn4)ccc3F)COC[C@H]2CS1` [UM0142055:01, LY2886721], the “Inh (PKA)” value is 5.898%.
Still for that read-out and setting: next, `Nc1nc(CC(=O)Nc2ccc(CCNC[C@H](O)c3ccccc3)cc2)cs1` [UM0142057:01, Mirabegron (YM178)]: 3.158%; `CN(C[C@@H]1COCCO1)S(=O)(=O)Nc1ccc2ccc3ncc(-c4cnn(C)c4)cc3c(=O)c2c1` [UM0142058:01, MK-2461]: 13.67%; `Cn1cc(-c2cnn3c(N)c(Br)c([C@@H]4CCCNC4)nc23)cn1` [UM0142059:01, MK-8776 (SCH-900776)]: 4.838%.
Consider `Cc1ccnc2c1NC(=O)c1cccnc1N2C1CC1` [UM0142060:01, Nevirapine], for which the “Inh (PKA)” value is 3.121%.
Still for that read-out and setting: the result for `COCCOC(=O)C1=C(C)NC(C)=C(C(=O)OC(C)C)C1c1cccc([N+](=O)[O-])c1` (stereo not drawn) [UM0142061:01, Nimodipine] reads 89.11%; that for `COc1ccc(-c2ccc3ncc4c(c3c2)n(-c2ccc(N3CCNCC3)c(C(F)(F)F)c2)c(=O)n4C)cn1` [UM0142062:01, NVP-BGT226], 19.52%; that for `Cn1cc(-c2ccc3ncc(Cc4ccc5ncccc5c4)n3n2)cn1` [UM0142063:01, NVP-BVU972], 13.19%.
`COc1ccc(-c2cc3c(C)nc(N)nc3n([C@H]3CC[C@H](OCCO)CC3)c2=O)cn1` [UM0142064:01, PF-04691502]: the “Inh (PKA)” value stood at 7.804%.
With `CNC(=O)c1nn(C)c2c1C(C)(C)Cc1cnc(Nc3ccc(N4CCN(C)CC4)cc3)nc1-2` [UM0142065:01, PHA-848125], the “Inh (PKA)” value came to 8.149%.
Still for that read-out and setting: next, `O=C(O)C[C@H](O)C[C@H](O)/C=C/c1c(C2CC2)nc2ccccc2c1-c1ccc(F)cc1` [UM0142066:01, Pitavastatin Calcium]: 41.78%; `CCn1nnc2c(N3CCOCC3)nc(-c3ccc(NC(=O)Nc4ccc(C(=O)N5CCN(C)CC5)cc4)cc3)nc21` [UM0142067:01, PKI-402]: 0.4885%.
On the same count and under the same terms, next, `CO[C@H]1/C=C/O[C@@]2(C)Oc3c(C)c(O)c4c(O)c(c5c(nc6cc(C)ccn65)c4c3C2=O)NC(=O)/C(C)=C\C=C\[C@H](C)[C@H](O)[C@@H](C)[C@@H](O)[C@@H](C)[C@H](OC(C)=O)[C@@H]1C` [UM0142068:01, Rifaximin (Xifaxan)]: 35.34%; `CC(C)c1nc(N(C)S(C)(=O)=O)nc(-c2ccc(F)cc2)c1/C=C/[C@@H](O)C[C@@H](O)CC(=O)O` [UM0142070:01, Rosuvastatin Calcium]: 4.68%; `CN1CCN(c2nc(C3=C(c4c[nH]c5ccccc45)C(=O)NC3=O)c3ccccc3n2)CC1` [UM0142072:01, Sotrastaurin (AEB071)]: 65.03%.
With `CC(C)(O)CC(=O)NCCn1ccc2ncnc(Nc3ccc(Oc4cccc(C(F)(F)F)c4)c(Cl)c3)c21` [UM0142073:01, TAK-285], the “Inh (PKA)” value is 28.39%.
On the same count and under the same terms, the result for `Cc1cn([C@@H]2C[C@@H](O)[C@H](CO)O2)c(=O)[nH]c1=O` [UM0142074:01, Telbivudine] reads -0.434%; that for `COc1cc([C@@H]2c3cc4c(cc3[C@@H](O[C@@H]3O[C@@H]5CO[C@@H](c6cccs6)O[C@H]5[C@H](O)[C@H]3O)[C@H]3COC(=O)[C@H]23)OCO4)cc(OC)c1O` [UM0142075:01, Teniposide], 6.975%; that for `CSc1ccc2c(c1)N(CCC1CCCCN1C)c1ccccc1S2` (stereo not drawn) [UM0142076:01, Thioridazine HCl], 11.27%.
The same measure, in the same setting: the result for `CN1CCc2c(c3ccccc3n2Cc2ccc(C(=O)NO)cc2)C1` [UM0142080:01, Tubastatin A HCl] reads 2.454%.
Consider `CCCCCCCCc1ccc(CCC(N)(CO)CO)cc1` [UM0142081:01, Fingolimod (FTY720)], for which the “Inh (PKA)” value was determined as 6.851%.
On the same count and under the same terms, next, `CNC(=O)c1cc(COc2nnc(Nc3ccc(Cl)cc3)c3ccoc23)ccn1` [UM0142083:01, Telatinib (BAY 57-9352)]: 10.72%.
As for `CC(C)n1nc(-c2ccc3oc(N)nc3c2)c2c(N)ncnc21` [UM0142084:01, INK 128 (MLN0128)], the “Inh (PKA)” value amounted to 29.78%.
Same read-out and setting: the result for `O=C(O)c1cccc(-c2noc(-c3ccccc3F)n2)c1` [UM0142085:01, PTC124 (Ataluren)] reads 9.195%; that for `Cc1cc(C)c(Nc2ccnc(Nc3ccc(C#N)cc3)n2)c(C)c1` [UM0142086:01, Dapivirine (TMC120)], 39.35%.
Same read-out and setting: the result for `COc1ncc(-c2ccc3nccc(-c4ccnnc4)c3c2)cc1NS(=O)(=O)c1ccc(F)cc1F` [UM0142087:01, GSK2126458] reads 7.374%; that for `CNC(=O)c1ccccc1Nc1nc(Nc2ccc(N3CCOCC3)cc2OC)ncc1Cl` [UM0142088:01, TAE226 (NVP-TAE226)], 15.32%; that for `CC[C@@H]1C(=O)N(C)c2cnc(Nc3ccc(C(=O)N[C@H]4CC[C@H](N5CCN(CC6CC6)CC5)CC4)cc3OC)nc2N1C(C)C` [UM0142089:01, BI6727 (Volasertib)], 8.077%.
As for `CC(C)[C@H](CO)Nc1nc(Nc2ccc(C(=O)O)c(Cl)c2)c2ncn(C(C)C)c2n1` [UM0142090:01, Purvalanol B], the “Inh (PKA)” value was 25.51%.
Regarding `C[C@H]1CO[C@@H]2Cn3cc(C(=O)NCc4ccc(F)cc4F)c(=O)c(O)c3C(=O)N12` [UM0142091:01, GSK744 (S/GSK1265744)], the “Inh (PKA)” value is reported as 7.532%.
The same measure, in the same setting: next, `N#Cc1ccc(OC2CCC(NC(=O)CCSc3nc4ccccc4c(=O)[nH]3)CC2)cc1` (stereo not drawn) [UM0142092:01, Tankyrase Inhibitors (TNKS) 49]: 5.667%; `Cc1[nH]nc2ccc(-c3cncc(OC[C@@H](N)Cc4ccccc4)c3)cc12` [UM0142094:01, A-674563]: 19.6%.
Consider `NC1(Cc2ccc(Cl)cc2)CCN(c2ncnc3[nH]ccc23)CC1` [UM0142095:01, CCT128930], for which the “Inh (PKA)” value is given as 38.25%.
